Test results published in patent publication US8273386B2, “Use of hop acids in fruit juices, fruit juice concentrates and other beverages to inhibit Alicyclobacillus bacteria” (MillerCoors LLC, priority 2004, dated 2012).

Legend:
Assay type in all cases: cell-based
[1] = system: Alicyclobacillus acidoterrestris; assay: Minimal Inhibitory Concentration (MIC) assay, broth dilution in BAM, turbidity scored visually; conditions: for Growth in BAM at pH 4.0 at 45° C.: turbidity after 72 hours
Procedure: The basic assay was performed by serially diluting the inhibitors using a two-fold dilution series in a nutrient broth. The dilutions provided inhibitor concentrations in the range of 0.025 ppm to 100 ppm. The nutrient broth used was the American Type Culture Collection Bacillus Agar Medium (BAM) (at pH 4.0 and at 45° C.) for the Alicyclobacillus acidoterrestris. All dilution series were inoculated with approximately 10,000 bacteria per 5 ml. broth tube of freshly cultured (using the same medium) cells per 5 ml. of test assay broth. In each assay, an inoculated sample of the broth without any inhibitor addition was used as a control. Growth was evaluated by visually assessing and scoring the development of turbidity in the broth after 72 hours. The results of the studies are summarized in Table 1 which gives the data from testing the effectiveness of the tetrahydroisohumulone, hexahydrocolupulone and colupulone in inhibiting Alicyclobacillus acidoterrestris. […] Hexahydrocolupulone inhibited the Alicyclobacillus acidoterrestris test strain at or above 50 ppm. Colupulone inhibited the Alicyclobacillus acidoterrestris test strain at or above 50 ppm.

[2] = system: Alicyclobacillus; assay: Inhibition of Alicyclobacillus in a solid or liquid medium (general statement)
[3] = system: Alicyclobacillus acidocaldarius; assay: Minimal Inhibitory Concentration (MIC) assay, broth dilution in TSB, turbidity scored visually; conditions: for Growth in TSB at pH 7.0: turbidity after 48 hours; for Concentration inhibiting the Alicyclobacillus acidocaldarius test strain (MIC): TSB, pH 7.0, 48 hours
Procedure: The basic assay was performed by serially diluting the inhibitors using a two-fold dilution series in a nutrient broth. The dilutions provided inhibitor concentrations in the range of 0.025 ppm to 100 ppm. The nutrient broth used was trypticase soy broth (TSB) (at pH 7.0) for the Alicyclobacillus acidocaldarius. All dilution series were inoculated with approximately 10,000 bacteria per 5 ml. of broth using freshly cultured (using the same medium) cells per 5 ml. of test assay broth. In each assay, an inoculated sample of the broth without any inhibitor addition was used as a control. Growth was evaluated by visually assessing and scoring the development of turbidity in the broth after 48 hours. The results of the studies are summarized in Table 2 which gives the data from testing the effectiveness of the tetrahydroisohumulone and hexahydrocolupulone in inhibiting Alicyclobacillus acidocaldarius. […] Hexahydrocolupulone inhibited the Alicyclobacillus acidocaldarius test strain at or above 0.05 ppm.

SMILES	Growth in BAM at pH 4.0 at 45° C. ([1]; 0.025 ppm)	Growth in BAM at pH 4.0 at 45° C. ([1]; 0.05 ppm)	Growth in BAM at pH 4.0 at 45° C. ([1]; 0.1 ppm)	Growth in BAM at pH 4.0 at 45° C. ([1]; 0.2 ppm)	Growth in BAM at pH 4.0 at 45° C. ([1]; 0.4 ppm)	Growth in BAM at pH 4.0 at 45° C. ([1]; 0.8 ppm)	Growth in BAM at pH 4.0 at 45° C. ([1]; 1.6 ppm)	Growth in BAM at pH 4.0 at 45° C. ([1]; 3.125 ppm)	Growth in BAM at pH 4.0 at 45° C. ([1]; 6.25 ppm)	Growth in BAM at pH 4.0 at 45° C. ([1]; 12.5 ppm)	Growth in BAM at pH 4.0 at 45° C. ([1]; 25 ppm)	Growth in BAM at pH 4.0 at 45° C. ([1]; 50 pm)	Growth in BAM at pH 4.0 at 45° C. ([1]; 100 ppm)	Concentration effective in inhibiting Alicyclobacillus [2] [ppm]	Growth in TSB at pH 7.0 ([3]; 0.025 ppm)	Growth in TSB at pH 7.0 ([3]; 0.05 ppm)	Growth in TSB at pH 7.0 ([3]; 0.1 ppm)	Growth in TSB at pH 7.0 ([3]; 0.2 ppm)	Growth in TSB at pH 7.0 ([3]; 0.4 ppm)	Growth in TSB at pH 7.0 ([3]; 0.8 ppm)	also measured
CC(C)=CCC1=C(O)C(C(=O)C(C)C)=C(O)C(CC=C(C)C)(CC=C(C)C)C1=O [Colupulone, colupulone]	++++ growth	++++ growth	++++ growth	++++ growth	++++ growth	++++ growth	++++ growth	++++ growth	++++ growth	++++ growth	++++ growth	No growth	No growth	–	–	–	–	–	–	–	–
CC(C)CCC(=O)C1(O)C(O)=C(C(=O)CC(C)C)C(=O)C1CCC(C)C (stereo not shown) [Tetrahydroisohumulone, tetrahydroisohumulone]	++++ growth	++++ growth	++++ growth	++++ growth	++++ growth	++++ growth	++++ growth	++++ growth	++++ growth	++++ growth	No growth	No growth	No growth	≥ 3	++++ growth	++++ growth	++++ growth	++++ growth	++++ growth	++++ growth	Concentration inhibiting the Alicyclobacillus acidoterrestris test strain (MIC) ([1]; BAM, pH 4.0, 45° C., 72 hours): ≥ 25 ppm; Growth in TSB at pH 7.0 ([3]; 1.6 ppm): ++++ growth; Growth in TSB at pH 7.0 ([3]; 3.125 ppm): No growth; Growth in TSB at pH 7.0 ([3]; 6.25 ppm): No growth; Growth in TSB at pH 7.0 ([3]; 12.5 ppm): No growth; Growth in TSB at pH 7.0 ([3]; 25 ppm): No growth; Growth in TSB at pH 7.0 ([3]; 50 ppm): No growth; Growth in TSB at pH 7.0 ([3]; 100 ppm): No growth; Concentration inhibiting the Alicyclobacillus acidocaldarius test strain (MIC) [3]: ≥ 3.125 ppm
CC(C)CCC1=C(O)C(C(=O)C(C)C)=C(O)C(CCC(C)C)(CCC(C)C)C1=O [Hexahydrocolupulone, hexahydrocolupulone]	++++ growth	++++ growth	++++ growth	++++ growth	++++ growth	++++ growth	++++ growth	++++ growth	++++ growth	++++ growth	++++ growth	No growth	No growth	≥ 0.05	++ growth	No growth	No growth	No growth	No growth	No growth	Growth in TSB at pH 7.0 ([3]; 1.6 ppm): No growth; Growth in TSB at pH 7.0 ([3]; 3.125 ppm): No growth; Growth in TSB at pH 7.0 ([3]; 6.25 ppm): No growth; Growth in TSB at pH 7.0 ([3]; 12.5 ppm): No growth; Growth in TSB at pH 7.0 ([3]; 25 ppm): No growth; Growth in TSB at pH 7.0 ([3]; 50 ppm): No growth; Growth in TSB at pH 7.0 ([3]; 100 ppm): No growth; Concentration inhibiting the Alicyclobacillus acidocaldarius test strain (MIC) [3]: ≥ 0.05 ppm
